Test systems include EKVX NSCLC; K-562 leukemia; BT-549 breast; HCT-116 colon; OVCAR-5 ovarian; COLO 205 colon; HOP-92 NSCLC; TK-10 renal; NCI-H226 lung; A549 NSCLC; SK-MEL-5 melanoma; OVCAR-4 ovarian; UACC-62 melanoma; CAKI-1 renal; M14 melanoma; U251 CNS; 786-0 renal; IGROV1 ovarian; DU-145 prostate; HOP-62 NSCLC.
Holding throughout (experiment): DTP human tumour cell line panel, 48 h

Each structure is given as a SMILES string.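 Values below derive from 48-hour exposures of cells grown in 96-well plates, with endpoints linearly interpolated between the two concentrations bracketing the appropriate inhibition level. At the TGI there is no net growth.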

With `Cc1cccc(/C=N/NC(=S)N(C)CCc2ccccn2)n1`, the TGI (as a rule, the concentration at which net growth stops) in the assay with EKVX NSCLC was greater than 100 µM; in the assay on K-562 leukemia, greater than 45.6 µM; in the assay with BT-549 breast, greater than 100 µM; with HCT-116 colon it was greater than 100 µM; with OVCAR-5 ovarian, greater than 100 µM; in the assay with COLO 205 colon it was greater than 100 µM. For the same molecule, the TGI was greater than 83.9 µM in the assay with HOP-92 NSCLC; greater than 100 µM in the assay on TK-10 renal; 19.6 µM in the assay on NCI-H226 lung; greater than 100 µM in the assay with A549 NSCLC; 9.4 µM in the assay with SK-MEL-5 melanoma; greater than 100 µM with OVCAR-4 ovarian. The TGI with UACC-62 melanoma is 1.02 µM; with CAKI-1 renal, 32.7 µM; with M14 melanoma, 2.38 µM; with U251 CNS, greater than 100 µM; with 786-0 renal it was greater than 100 µM; in the assay on IGROV1 ovarian, 24.6 µM.
Regarding `c1ccc2c3nnc(c2c1)SCCCSc1nnc(c2ccccc12)SCCCS3`, the total growth inhibition concentration (TGI) in the assay on EKVX NSCLC was greater than 100 µM; in the assay with K-562 leukemia, greater than 100 µM; with HCT-116 colon, greater than 100 µM; in the assay on OVCAR-5 ovarian it was greater than 100 µM; in the assay on COLO 205 colon, greater than 100 µM; in the assay with HOP-92 NSCLC, 94.3 µM. Moreover, the TGI is greater than 100 µM in the assay with TK-10 renal; 56.6 µM with NCI-H226 lung; greater than 100 µM in the assay with A549 NSCLC; 72.2 µM in the assay on SK-MEL-5 melanoma; greater than 100 µM with DU-145 prostate; 54.3 µM with OVCAR-4 ovarian. In addition, the TGI was 88.8 µM in the assay on UACC-62 melanoma; 52.8 µM in the assay on HOP-62 NSCLC; greater than 100 µM in the assay on M14 melanoma; greater than 100 µM in the assay with U251 CNS; greater than 100 µM in the assay with 786-0 renal; greater than 100 µM in the assay on IGROV1 ovarian.
On to `CCOC(=O)CC(=O)CSc1c(-c2ccccc2)c(=O)n(-c2ccccc2)c(=S)n1-c1ccccc1`, for which the TGI with EKVX NSCLC, in the assay with K-562 leukemia, with HCT-116 colon, in the assay with OVCAR-5 ovarian, in the assay with COLO 205 colon and with HOP-92 NSCLC was greater than 100 µM each time. Also, the concentration for total growth inhibition (TGI) in the assay with TK-10 renal, in the assay with NCI-H226 lung, in the assay on A549 NSCLC, in the assay with DU-145 prostate, with OVCAR-4 ovarian and in the assay with UACC-62 melanoma was greater than 100 µM throughout. Besides, the TGI in the assay on HOP-62 NSCLC, with CAKI-1 renal, in the assay on M14 melanoma, with U251 CNS, with 786-0 renal and in the assay on IGROV1 ovarian was greater than 100 µM each time.
In the case of `CCOC(=O)C(NC(=O)c1ccccc1)(Nc1ccc(S(=O)(=O)Nc2cc(C)nc(C)n2)cc1)C(F)(F)F` (configuration not stated), the TGI with EKVX NSCLC, in the assay on K-562 leukemia, in the assay with HCT-116 colon, with OVCAR-5 ovarian, with COLO 205 colon and in the assay on HOP-92 NSCLC was greater than 100 µM in each case. Also, the TGI in the assay on TK-10 renal, in the assay on NCI-H226 lung, with A549 NSCLC, with SK-MEL-5 melanoma, in the assay on DU-145 prostate and with OVCAR-4 ovarian was greater than 100 µM throughout. Also, the TGI in the assay on UACC-62 melanoma, in the assay with HOP-62 NSCLC, in the assay with CAKI-1 renal, in the assay on M14 melanoma, in the assay with U251 CNS and in the assay with 786-0 renal was greater than 100 µM each time. The TGI with IGROV1 ovarian is greater than 100 µM.
Take `CCn1c(O)c(C=Nc2ccccc2)s/c1=N/Nc1nc(-c2ccc(O)c(O)c2)cs1`: the TGI in the assay on EKVX NSCLC was greater than 100 µM; in the assay on K-562 leukemia, 26.5 µM; with HCT-116 colon it was greater than 100 µM; with OVCAR-5 ovarian it was greater than 100 µM; in the assay on COLO 205 colon, greater than 100 µM; with HOP-92 NSCLC, greater than 100 µM. The TGI in the assay with TK-10 renal, in the assay with NCI-H226 lung, with A549 NSCLC, with SK-MEL-5 melanoma, with DU-145 prostate and in the assay with OVCAR-4 ovarian was greater than 100 µM in each case. Also, the concentration for total growth inhibition (TGI) in the assay on UACC-62 melanoma, with HOP-62 NSCLC, in the assay with CAKI-1 renal, in the assay on M14 melanoma, in the assay on U251 CNS and with 786-0 renal was greater than 100 µM throughout. This molecule also showed a TGI in the assay on IGROV1 ovarian greater than 100 µM.
As for `Cc1ccc(S(=O)(=O)N/N=C2\CC(C)OC3=C2CCCCCC3)cc1` (configuration not stated), the TGI is 30.4 µM in the assay with EKVX NSCLC; greater than 100 µM with K-562 leukemia; 30.4 µM in the assay with HCT-116 colon; 37.8 µM in the assay with OVCAR-5 ovarian; 37.1 µM in the assay with COLO 205 colon; 36.7 µM with HOP-92 NSCLC. The TGI in the assay with TK-10 renal is 37.2 µM; with NCI-H226 lung it was 39 µM; with A549 NSCLC it was 34.4 µM; in the assay on SK-MEL-5 melanoma, 31.9 µM; in the assay on DU-145 prostate, 37.6 µM; with OVCAR-4 ovarian, 35.6 µM. Moreover, the TGI in the assay on UACC-62 melanoma is 30.6 µM; in the assay with HOP-62 NSCLC, 35.1 µM; with CAKI-1 renal, 44.6 µM; in the assay with M14 melanoma, 36.2 µM; with 786-0 renal, 32.3 µM; in the assay with IGROV1 ovarian, 38.2 µM.
Regarding `Cc1cc(-c2cscn2)c(O)c([N+](=O)[O-])c1`, the TGI in the assay on EKVX NSCLC, in the assay with K-562 leukemia, in the assay on BT-549 breast, with HCT-116 colon, in the assay with OVCAR-5 ovarian and in the assay on COLO 205 colon was greater than 100 µM throughout. The concentration for total growth inhibition (TGI) with HOP-92 NSCLC, in the assay on TK-10 renal, with A549 NSCLC, in the assay with SK-MEL-5 melanoma, in the assay on OVCAR-4 ovarian and in the assay with UACC-62 melanoma was greater than 100 µM in each case. In addition, the total growth inhibition concentration (TGI) in the assay on HOP-62 NSCLC, in the assay on CAKI-1 renal, in the assay on M14 melanoma, with 786-0 renal and in the assay on IGROV1 ovarian was greater than 100 µM throughout.

Values taken from PubChem BioAssay (NCI).
